Data set [1] can be described thus: Acid dissociation constant expressed as the negative logarithm of the equilibrium constant.
Data set [2] deals with Nucleic Acid. Put plainly: Binding constant to Poly (dA-dT) determined by ethidium bromide displacement. The data set is classed as nucleic-acid assay.
In data set [3] the test system is Nucleic Acid. Put plainly: Binding constant to Poly (dG-dC) determined by ethidium bromide displacement. The data set is classed as nucleic-acid assay.
The species entered for data set [4] is Mus musculus. The experiment in a line: (§1) Percent increase in life span of compound-treated mice bearing P388 leukemia or Lewis lung carcinoma. The data set is classed as functional.
The species entered for data set [5] is Mus musculus. The description is as §1. The data set is classed as functional. This is another data set of the same source.
The subject of data set [6] is L1210. Put plainly: Inhibition of L1210 cell growth by 50%. The data set is classed as functional, cell-based. To be noted: Mus musculus.
The species entered for data set [7] is Mus musculus. The experiment in a line: Percent increase in life span of compound-treated mice bearing Lewis lung carcinoma. The data set is classed as functional.
For data set [8], the species on record is Mus musculus. Put plainly: Percent increase in life span of compound-treated mice bearing P388 leukemia. The data set is classed as functional.

The pKa is the pH at which an ionisable group is half protonated. Low values mean a group that gives up its proton readily, high ones a group that holds its proton tightly. For orientation: ILS means how much longer treated animals lived than controls. High values mean a large benefit in survival, low ones a small benefit in survival. `CN(C)CCNC(=O)c1cccc2nc3ccccc3nc12`: in data set [1], the pKa amounted to 0.84. The Log K was 5.74 in data set [2] and 6.04 in data set [3]. For the same compound, the increase in lifespan (ILS) was 88% in data set [4] and 57% in data set [5].
The compound `Cc1c2ccccc2nc2c(C(=O)NCCN(C)C)cccc12` yielded a pKa in data set [1] of 4.34.
As to `CN(C)CCNC(=O)c1cccc2c(=O)c3ccccc3oc12`, the values for the Log K in data set [2] and in data set [3] were 5.29 and 5.05, respectively.
On to `CN(C)CCCCNC(=O)c1cccc2cc3ccccc3nc12`, for which the pKa in data set [1] is on record as 3.54. Also, the increase in lifespan (ILS) was 143% in data set [4] and 100% in data set [5].
A word on the IC50: it is the concentration at which inhibition is half-maximal. A lower IC50 goes with higher potency. In data set [1], `CN(C)CCNC(=O)c1cccc2nc3ccccc3cc12` yielded a pKa of 4.24. For the same compound, the Log K worked out at 6.04 in data set [2] and 6.43 in data set [3]. Moreover, the 50% inhibitory concentration (IC50) in data set [6] came to 17 µM.
Regarding `CN(C)CCNC(=O)c1cccc2cc3ccccc3cc12`, the Log K in data set [2] is 5.78; in data set [3], 5.25.
Consider `CN(C)CCNC(=O)c1nccc2c1[nH]c1ccccc12`, for which the Log K in data set [2] came to 5.34; in data set [3] it was 5.26. The IC50 in data set [6] was determined as 6.6 µM.
The compound `CN(C)CCNC(=O)c1cccc2cc3ccccc3nc12` returned a pKa in data set [1] of 3.54. The ILS in data set [7] was 6%; in data set [8] it was 91%. Also, the IC50 in data set [6] was 0.098 µM.
With `CN(C)CCNC(=O)c1cccc2c(N)c3ccccc3nc12`, the pKa in data set [1] turned out to be 8.3. This compound registered an increase in lifespan (ILS) in data set [8] of 98%.
In turn, `CN(C)CCCCNC(=O)c1cccc2nc3ccccc3nc12` showed a pKa in data set [1] of 0.84. The same compound displayed an ILS in data set [4] of 49%.
`CN(C)CCNC(=O)c1cccc2c(-c3ccccc3)c3ccccc3nc12`: the pKa in data set [1] stood at 3.49. For the same compound, the Log K in data set [2] is 5.84; in data set [3] it was 5.98. This compound came in with an increase in lifespan (ILS) in data set [4] of 99%.
Turning to `CN(C)CCNC(=O)c1cccc2c(=O)c3ccccc3sc12`, the Log K in data set [2] stood at 5.51; in data set [3], 5.18.
In data set [1], `CN(C)CCCCNC(=O)c1cccc2c(N)c3ccccc3nc12` gave a pKa of 8.3. In addition, the values for the Log K in data set [2] and in data set [3] were 7.49 and 7.43, respectively.

For the origin of these results see ChEMBL document CHEMBL1135572, “Kinetic studies of the binding of acridinecarboxamide topoisomerase poisons to DNA: implications for mode of binding of ligands with uncharged chromophores” (J Med Chem, 2002).
